The values that follow are results of earlier work, collected in patent publication EP4609858A1, “BUP[…] AND PREPARATION METHOD THEREFOR” (Shenzhen Sciencare Pharmaceutical Co., Ltd., priority 2023, dated 2024).

Counter-ions that a name gives are not always drawn. Like-named read-outs stand apart in the source and are kept apart here.

Regarding `CO[C@]12CC[C@@]3(C[C@@H]1[C@](C)(O)C(C)(C)C)[C@H]1Cc4ccc(O)c5c4[C@@]3(CCN1CC1CC1)[C@H]2O5` [buprenorphine hydrochloride], the solubility result is “soluble” (in alcohol), “freely soluble” (in methanol) and “slightly soluble” (in water).
